Results: patent publication US6746667B2, “Adhesive treatment for tinea pedis” (Closure Medical Corporation, priority 2001, dated 2004)

Test: observation of haloprogin / 2-octyl cyanoacrylate monomer composition after preparation
Format: physicochemical
Details: 30 mg in 2 mL 2-octyl cyanoacrylate monomer; about one minute and at least twenty-four hours after preparation
Experimental: A 2-octyl cyanoacrylate monomer composition is prepared by adding 30 mg of haloprogin, an anti-fungal agent, to 2 mL of 2-octyl cyanoacrylate monomer. The mixture is sealed in a glass vial and stirred. The characteristics of the composition are observed at about one minute after preparation and later at least twenty-four hours after preparation.

premature polymerization of the monomer (stability): does not cause premature polymerization
solubility in the monomer: soluble in the monomer
SMILES: Clc1cc(Cl)c(OCC#CI)cc1Cl [haloprogin]
